Read-outs that look alike come from different tables or passages of the source.

Data set [1] concerns DC-3F, K-562 and Lewis Lung Carcinoma cells. As to the kind of experiment: In vitro electroporation, MTT viability assay. In kind it is cell-based, Chinese hamster, human, murine. As to the method: Three cell lines are used for in vitro experiments, DC-3F, a transformed Chinese hamster lung fibroblast cell line; K-562, a human leukemia cell line; and Lewis Lung Carcinoma, a murine lung carcinoma cell line. DC-3F cells were tested for mycoplasma in January 2011, K-562 cells were tested for mycoplasma in 2008 prior to freezing and thawing just before experiments were performed, and Lewis Lung cells were tested by rapid MAP27 panel (Taconic, Hudson N.Y.) in July 2011 without signs of infection. Cells are maintained in RPMI 1640 culture medium (GIBCO™, Life Technologies, Carlsbad, Calif.) with 10% fetal calf serum (GIBCO™, Life Technologies, Carlsbad, Calif.), penicillin and streptomycin at 37° C. and 5% C02. After harvesting, cells are washed and diluted in HEPES buffer containing 10 mM HEPES (Lonza, Basel, Switzerland), 250 mM sucrose and 1 mM MgCl2 in sterile water. 270 μl cell suspension (6.1×10^6 cells/ml) and 30 μl CaCl2, or in the case of controls, HEPES buffer, are electroporated in 4 mm wide cuvettes with aluminium electrodes (Molecular BioProducts, Inc., San Diego, Calif.). Cooled cells (8° C.) are exposed to 8 pulses of 1.2 kV/cm with pulse duration of 99 μs (DC-3F and K562 cells) or 8 pulses of 1.4 kV/cm with pulse duration of 99 μs (Lewis Lung Carcinoma) using a BTX® T820 square wave electroporator (BTX®, Harvard Apparatus, Holliston, Mass.). The electroporation parameters are chosen after optimization to obtain high permabilisation and cell survival. After 20 min at 37° C. and 5% CO2 cells are diluted in RPMI 1640 culture medium with 10% fetal calf serum and penicillin-streptomycin and seeded in 96-well plates at a concentration of 3.1×10^4 cells/100 μl.
Difference between electroporated and non-electroporated cells in identical buffer is assessed using two-way analysis of variance (ANOVA) with post least-squares-means test with Bonferroni correction for multiple comparisons.
For orientation: Tetrazolium assays rely on reduction of a dye to a coloured formazan, in cell work by metabolically active cells.

Data set [2] has as its system basocellular carcinoma. Kind of data set: Case study, calcium electroporation in a human patient. In kind it is in vivo. On the procedure: In a patient with multiple basocellular carcinomas, where all known treatment options had been tried and the patient was still in need of treatment, calcium electroporation was tried.
In this patient, lesions that were verified by biopsy to contain basocellular carcinoma were treated with different doses of calcium chloride or calcium glubionate with electroporation. Three lesions were treated, measuring 0.8 to 2 cm, by 0.1-0.2 mm deep.
After local anaesthesia (Mir et al), calcium was injected intratumorally using a thin needle and 1 ml syringe. Volumes of resp. 0.1, 0.7 and 3.7 times the calculated tumor volume (in this case calculated as diameter times perpendicular diameter times depth due to the shape of the tumors) was injected.
Immediately after injection (within 45 seconds), electroporation was performed using a square wave pulse generator (CLINIPORATOR®, IGEA, Modena, Italy) and needle electrodes with parallel arrays 0.4 cm apart. Eight pulses of a duration of 0.1 ms and 1 kV/cm (voltage to electrode distance ratio) were administered immediately after calcium injection.

Data set [3] relates to DC-3F, K-562 and Lewis Lung Carcinoma cells. Kind of data set: Hypothetical sonoporation in vitro, MTT assay. In kind it is cell-based, Chinese hamster, human, murine. As to the method: Three cell lines are used for in vitro experiments, DC-3F, a transformed Chinese hamster lung fibroblast cell line; K-562, a human leukemia cell line; and Lewis Lung Carcinoma, a murine lung carcinoma cell line. All cell lines are tested for mycoplasma. Cells are maintained in RPMI 1640 culture medium with 10% fetal calf serum, penicillin and streptomycin at 37° C. and 5% CO2. After harvesting, cells are washed and diluted in HEPES buffer containing 10 mM HEPES, 250 mM sucrose and 1 mM MgCl2 in sterile. The cell suspension with 0, 0.5, 1 and 3 mM CaCl2 is added to a sample tube which is placed in the ultrasound exposure chamber and exposed to low-frequency ultrasound at room temperature. A function generator is programmed to provide a wave of selected voltage, duty cycle, burst length, and total exposure time.
After 20 min at 37° C. and 5% CO2 cells are diluted in RPMI 1640 culture medium with 10% fetal calf serum and penicillin-streptomycin and seeded in 96-well plates at a concentration of 3.1×10^4 cells/100 μl.
Difference between cells treated with and without ultrasound in identical buffer is assessed using two-way analysis of variance CANOVA) with post least-squares-means test with Bonferroni correction for multiple comparisons.

Data set [4] relates to H69 (human small cell lung cancer) tumors. Kind of data set: Tumor volume and fluorescence intensity of H69 tumors on nude mice. The following applies: for necrosis of skin / healthy tissue around the tumor: injected volume equivalent to the tumor volume (1 to 1 ratio).
Setting [5] is: 168 mM CaCl2 with electroporation.

Consider `[Ca+2].[Cl-].[Cl-]` [calcium chloride], for which the concentration giving a half-maximal response (EC50) in data set [1] (all electroporated cell lines, 8 pulses 1.2-1.4 kV/cm, 99 μs, MTT 1 and 2 days after treatment, read-out: EC50 (decrease in viability)) was 570 µM; in data set [1] (range over the electroporated cell lines, read-out: EC50 range (decrease in viability)), 350 to 790 µM. Besides, the “lowest concentration inducing high cell death” value in data set [1] (electroporated) is on record as 1 mM. Further, the “calcium concentration from which viability decreases significantly (p<0.01)” value in data set [1] (electroporated, all cell lines) is not below 0.5 mM. Also, the “cell death after calcium electroporation” value in data set [1] (electroporated, all three cell lines) is reported as “dose dependent cell death”. In addition, the “effect on cell viability” value in data set [1] (non-electroporated cells, high calcium concentrations) is “no effect on cell viability”; in data set [3] (without ultrasound, high calcium concentrations), “no effect on cell viability”. Also, the “EC50 (decrease in viability)” value in data set [1] (without electroporation) is recorded as “not reached”. Moreover, the “normal skin reaction (clinical observation)” value in data set [2] (highest volume (3.7 times tumor volume), with electroporation) is on record as “necrosis of normal skin”. In addition, the “tumor response (biopsy)” value was “did not lead to changes” in data set [2] (injected volume 0.1 of tumor volume, with electroporation) and “efficient tumor cell kill” in data set [2] (injected volume 0.7 of tumor volume, electroporation 8 pulses 0.1 ms 1 kV/cm). In addition, the cell death entry in data set [3] (with ultrasound, 0 to 3 mM calcium) is “dose dependent cell death”. Further, in data set [4] (168 mM CaCl2 intratumoral with electroporation (8 pulses 1.0 kV/cm, 100 μs, 1 Hz), 8/9), the treated tumors eliminated turned out to be 89%. Moreover, in data set [4] (setting [5]), the “healing of ulceration, average” value is reported as 18 days. Further, the “healing of ulceration, range” value in data set [4] (setting [5]) fell in the range of 9 to 24 days. In data set [4] (setting [5]), the “ulceration of treated tumors” value is recorded as “occurs in all”. In addition, the “fluorescence intensity of tumors” value in data set [4] (168 mM CaCl2 with electroporation, stays at background levels) was “decrease drastically”. In addition, the “necrosis of skin / healthy tissue around the tumor” value in data set [4] (with electroporation, listed as Ca^2+-EP) is “skin necrosis”; in data set [4] (with electroporation, listed as calcium solution), “necrotic effect on the healthy tissues surrounding the neoplasm”. Further, the “necrosis of surrounding tissue” value in data set [4] (injected volume ratio 0.5 of tumor volume, with electroporation) was “without creating necrosis in the surrounding tissue”. Moreover, in data set [4] (isotonic calcium-chloride without electroporation), the “tumor volume doubling time” value was found to be 6.3 days.

The term EC50 denotes the concentration needed to bring the measured effect to its halfway point.

(Values after US9943599B2, “Therapeutic applications of calcium electroporation to effectively induce tumor necrosis” (Herlev Hospital, priority 2011, dated 2018).)
